Laboratory results taken from US20180171288A1, “METHODS OF TREATING CANCER” (THE UNIVERSITY OF ROCHESTER, priority 2016, published 2018).
Several values for one entry are separate records, joined by “and”; a condition that tells them apart may be missing. Equal values may be shown once. Entries after “also recorded” stand apart in the source; their conditions may differ. Read-outs that look alike come from different tables or passages of the source.

Key:
tumor growth = conditions: in combination with TMX; cited from earlier work
[1] = tested on: OPCs isolated from the developing human central nervous system; assay: Sensitivity of human OPCs to anticancer agents; format: cell-based
Description: This is a particularly difficult problem to solve in the context of cells of the central nervous system, as many of these cells are inherently more sensitive to anticancer agents than are cancer cells themselves. Previous studies have shown that one of the cell types of the brain that is most sensitive to the adverse effects of multiple chemotherapeutic agents are the oligodendrocyte progenitor cells (OPCs) that give rise to the myelin-forming oligodendrocytes of the central nervous system.

GBM cells [2] = assay: Protein levels of direct and indirect c-Cbl targets in GBM cells; format: cell-based, human
Experimental: Alternatively, restoration of c-Cbl function can be determined by analysis of changes in the levels of direct targets of c-Cbl, with changes in the levels of two or more c-Cbl targets caused by the application of a single therapeutic intervention being an indicator of c-Cbl activation. In such analyses, cells are treated with saline, with the CRA or DCLTD by itself, with a pro-oxidant or with the combination of a CRA or a DCLTD with a pro-oxidant. The ability of treatment with the combined agents to cause greater decreases in the levels of proteins that are direct targets of c-Cbl provides a surrogate indicator of c-Cbl activation.
Six of the 10 compounds remaining were chosen to determine whether they restored the ability of oxidation of cells to cause decreases in levels of a c-Cbl target, an outcome that occurs when c-Cbl is activated via the redox/Fyn/c-Cbl pathway. These compounds indeed restored the ability of pro-oxidative stimulation to cause decreases in the levels of the epidermal growth factor receptor (EGFR), which is a c-Cbl target known to be important in growth of many cancer cells and that is of interest as a potential target in cancer treatment.
There are two groups of such proteins, ones in which the connection to a c-Cbl target can be reasonably surmised based on prior research and ones for which the linkage to c-Cbl is currently unknown. Non-limiting examples of the first category of outcomes are activities of Erk1/2 and Akt, which both are downstream of receptor tyrosine kinases that are targets of c-Cbl. Further non-limiting examples are activity levels of NF-κB and serum response element (SRE), which are activated downstream of Akt and […], respectively.

c-Cbl = c-Cbl phosphorylation in GBM cells; format: cell-based, human
Experimental: In this approach, cancer cells are treated with a CRA or a DCLTD in the presence or absence of an agent that causes cells to become more oxidized. The status of c-Cbl phosphorylation may be analyzed by any of a number of means well-known to those skilled in the art, including Western blot analysis of cell lysates with an antibody that identifies phosphorylated c-Cbl, for instance at tyrosine residues Y731 or Y771, analysis of cell labeling with such antibodies which may be conjugated with a fluorescent probe that makes them suitable for analysis by fluorescence microscopy, immunohistochemistry or by automated fluorescence analysis of some form, or by CYTOF mass cytometry analysis. The change in phosphorylation status is compared with that seen in untreated cells, in cells treated with the CRA or DCLTD by itself, or that treated with a pro-oxidant by itself.
An example of the ability of DCLTDs to restore the ability of TMX to enhance phosphorylation of c-Cbl via the redox/Fyn/c-Cbl pathway is shown in FIG. 8. […] As predicted if activation was RFC pathway-mediated, such activation was inhibited by N-acetyl-L-cysteine (NAC, a glutathione pro-drug and anti-oxidant), thus confirming that TMX-induced activation of c-Cbl was dependent on the pro-oxidative activities of TMX.

GBM TICs = assay: Tumor generation by GBM cells treated in vitro and transplanted intra-cranially in NSG mice; format: in vivo; conditions: cells exposed 72 hrs in vitro, four GBM cell lines
Description: After treatment, 500,000 live cells were transplanted intra-cranially in NSG mice. […] In contrast with the effects of MPT+TMX in TICs, treatment with temozolomide (TMZ, the frontline treatment for glioblastoma), had no apparent effects on TICs (FIG. 12D).
Unexpectedly, in light of the partial reduction in levels of Cool-1/βpix, and the similarly partial reduction in levels of proteins important in TIC biology, treatment with DCLTD-based therapies eliminates TICs. […] After treatment, 500,000 live cells were transplanted intra-cranially in NSG mice. […] Thus, treatment with temozolomide had little apparent effect on TIC elimination, in agreement with patient data indicating rapid recurrence of tumor even during the period of temozolomide treatment.
Exposure of GBM cells to the combination of MPT+TMX led to the apparently complete elimination of GBM cancer stem cells. GBM cells from four different cell lines were exposed to MPT+TMX combination for 72 hrs in vitro, after which 500,000 live cells were transplanted intra-cranially in NSG mice.

parental MCF-7 cells = format: cell-based, human
TMXR MCF-7 cells = assay: Growth and killing of TMXR MCF-7 cells in vitro; format: cell-based, human; conditions: for vulnerability / resistance of TMXR MCF-7 cells to 4^OH-CPP: 3 μM MPT, 5 μM TMX, 5 μM 4^OH-CPP
GBM cells [3] = assay: Sensitivity of GBM cells to TMX / cell killing; format: cell-based, human
Description: The cell lines studied represent a range of glioblastoma subtypes and genotypes and generate human glioblastomas when transplanted into the CNS of immune-deficient mice.

melanoma cells = assay: Sensitivity of melanoma cells to TMX; format: cell-based
[4] = tested on: complex between c-Cbl and Cool-1/βpix; assay: Complex between c-Cbl and Cool-1/βpix in GBM cells (immunoprecipitation, immunoblot); format: cell-based, human
Description: Lysates of treated and untreated cells were immuno-precipitated with anti-c-Cbl antibody followed by immunoblot analysis for Cool-1/βpix expression.

Cool-1/βpix = Cool-1/βpix Serine340 phosphorylation (antibody blot / immunostaining); format: cell-based, human; conditions: anti-phospho-Cool1/βpix antibody
[5] = tested on: tamoxifen-resistant luminal breast cancer cells
[6] = tested on: complex between c-Cbl and Cool-1/βpix; conditions: TMX-resistant luminal breast cancer cells
human TMXR MCF7 cells = assay: TMXR MCF7 mammary fat pad xenograft in NSG mice; conditions: mouse, in vivo
hGBM27 = assay: Intracranial xenograft, hGBM27; format: in vivo, NSG mice
hGBM10 = assay: Intracranial xenograft, hGBM10; format: in vivo, NSG mice
human GBM cells = assay: Established intracranial human GBM xenografts in NSG mice (cohorts together)
MDA-MB-231 cells = assay: Sensitivity of MDA-MB-231 BLBC cells to TMX; format: cell-based
Description: Sertraline and mefloquine both were identified in screens on MDA-MB-231 BLBC cells, in which c-Cbl is inhibited in a Cdc42-dependent manner.

ML141
suppression of tumor growth (tumor growth): only provided partial suppression of tumor growth

OCCNC1CCCc2c1[nH]c1ccc(-c3ccccc3)cc21 (stereo not shown) [CASIN]
sensitivity of OPCs to TMX [1]: does not increase the vulnerability of OPCs to TMX

CC/C(=C(\c1ccccc1)c1ccc(OCCN(C)C)cc1)c1ccccc1 [TMX, tamoxifen]
levels of FoxM1, Sox2, HSF-1 and HSP70 (GBM cells [2]): does not have the above effects | c-Cbl phosphorylation (c-Cbl): alone was not sufficient to activate c-Cbl | tumor generation after transplant of 500,000 live treated cells (GBM TICs): generated tumors within three weeks | effect on cell division and survival (parental MCF-7 cells): cytostatic but not lethal | cell division in the presence of TMX (TMXR MCF-7 cells; 1 μM TMX, TMXR cells): continue to divide | vulnerability / resistance of TMXR MCF-7 cells to 4^OH-CPP (TMXR MCF-7 cells): only slightly increased vulnerability to 4^OH-CPP

CNCCCC12CCC(c3ccccc31)c1ccccc12 [MPT, maprotiline]
levels of Cool-1/βpix (GBM cells [2]): decreases levels of the inhibitory protein Cool-1/βpix | levels of the c-Cbl targets EGFR, Notch-1, β-catenin and PDGFRα (GBM cells [2]): decreases were less marked | sensitivity of GBM cells to TMX (GBM cells [3]): enhanced the sensitivity of GBM cells; also recorded: increase in tamoxifen sensitivity | sensitivity of melanoma cells to TMX (melanoma cells): increased the sensitivity of melanoma cells to TMX | c-Cbl phosphorylation (c-Cbl): enabled TMX-induced c-Cbl phosphorylation | levels of the complex between c-Cbl and Cool-1/βpix [4]: virtually complete elimination of complexes; also recorded: marked reductions in levels of the complex | Cool-1/βpix phosphorylation on Serine340 (Cool-1/βpix): decreases the level of staining; also recorded: causes a decrease in levels of Cool-1/βpix phosphorylation | sensitivity of OPCs to TMX [1]: did not increase the sensitivity | sensitivity of OPCs to temozolomide [1]: does not increase the sensitivity of OPCs to temozolomide | vulnerability / resistance of TMXR MCF-7 cells to 4^OH-CPP (TMXR MCF-7 cells): only slightly increased vulnerability to 4^OH-CPP | tamoxifen sensitivity of tamoxifen-resistant luminal breast cancer cells [5]: increase in tamoxifen sensitivity | levels of the complex between c-Cbl and Cool-1/βpix [6]: causes a decrease in levels of the complex

CNCCC(Oc1ccc(C(F)(F)F)cc1)c1ccccc1 (stereo not shown) [fluoxetine]
sensitivity of GBM cells to TMX (GBM cells [3]): none of them were as effective as MPT

O=P1(N(CCCl)CCCl)NCCCO1 (stereo not shown) [CPP, cyclophosphamide]
tumor growth (human TMXR MCF7 cells): already have initiated tumor growth midway through treatment

Cc1cccc(CN2CCN(C(c3ccccc3)c3ccc(Cl)cc3)CC2)c1 (stereo not shown) [meclizine]
sensitivity of GBM cells to TMX (GBM cells [3]): increased the vulnerabilty of GBM cells to TMX

C=C(NC(=O)C(=C)NC(=O)c1csc(C2=N[C@@H]3c4csc(n4)[C@H]4NC(=O)c5csc(n5)[C@H]([C@](C)(O)[C@@H](C)O)NC(=O)[C@H]5CSC(=N5)/C(=C/C)NC(=O)[C@H]([C@@H](C)O)NC(=O)c5csc(n5)[C@]3(CC2)NC(=O)[C@H](C)NC(=O)C(=C)NC(=O)[C@H](C)NC(=O)[C@H]([C@@H](C)CC)N[C@@H]2C=Cc3c([C@H](C)O)cc(nc3[C@H]2O)C(=O)O[C@@H]4C)n1)C(N)=O [thiostrepton]
sensitivity of GBM cells to TMX (GBM cells [3]): does not increase sensitivity to TMX as potently as does MPT | c-Cbl phosphorylation (c-Cbl): not associated with a notable increase in c-Cbl phosphorylation

OC(c1cc(C(F)(F)F)nc2c(C(F)(F)F)cccc12)C1CCCCN1 (stereo not shown) [mefloquine]
sensitivity of melanoma cells to TMX (melanoma cells): increased the sensitivity of melanoma cells to TMX

CN(C)CCC=C1c2ccccc2CCc2ccccc21 [amitryptiline]
sensitivity of GBM cells to TMX (GBM cells [3]): none of them were as effective as MPT

Cn1nnc2c(C(N)=O)ncn2c1=O [TMZ, temozolomide]
week of treatment in which tumor size began to increase (hGBM27; hGBM27): 4 week | increase in tumor size (photon flux) at 12 weeks (hGBM27; hGBM27, 3 weeks after cessation of treatment): > 5000 fold | increase in tumor size (photon flux) at the end of 9 weeks of treatment (hGBM27; hGBM27, oral gavage 5 days on/2 days off): > 100 fold | median survival (hGBM27; hGBM27 cohort): 11.5 weeks | increase in tumor size at 12 weeks (hGBM10; hGBM10): > 500 fold and 500 fold | median survival (hGBM10; hGBM10 cohort): 12 weeks | increase in lifespan over saline-treated mice (human GBM cells; median 9 week survival of saline-treated mice): 30% | time lived after treatment was stopped (human GBM cells; mouse, in vivo): 4-5 weeks and 2-6 weeks

CN[C@H]1CC[C@@H](c2ccc(Cl)c(Cl)c2)c2ccccc21 [sertraline]
sensitivity of MDA-MB-231 BLBC cells to TMX (MDA-MB-231 cells): increased the sensitivity of these cells to TMX; also recorded: increase in tamoxifen sensitivity | sensitivity of OPCs to TMX [1]: does not increase sensitivity of OPCs to TMX
